Data on 26 compounds can be found in patent publication US8802678B2, “Carbonylated (aza) cyclohexanes as dopamine D3 receptor ligands” (Bioprojet, priority 2006, dated 2014).

One may read the melting point as the temperature of the solid-liquid transition.

On to `N#CCC(=O)N[C@H]1CC[C@H](CCN2CCN(c3ccc(F)c(C#N)c3F)CC2)CC1` [Example 687, 2-Cyano-N-(4-{2-[4-(3-cyano-2,4-difluorophenyl)piperazin-1-yl]ethyl}cyclohexyl)acetamide], for which the melting point stood at 210 °C.

In turn, `N#CCCCC(=O)N[C@H]1CC[C@H](CCN2CCN(c3ccc(F)c(C#N)c3F)CC2)CC1` [Example 688, 4-Cyano-N-(4-{2-[4-(3-cyano-2,4-difluorophenyl)piperazin-1-yl]ethyl}cyclohexyl)butanamide] yielded a melting point of 203 °C.

Take `COCCCC(=O)N[C@H]1CC[C@H](CCN2CCN(c3cccc(F)c3C)CC2)CC1` [Example 689, N-(4-{2-[4-(3-Fluoro-2-methylphenyl)piperazin-1-yl]ethyl}cyclohexyl)-4-methoxybutanamide]: the melting point turned out to be 172 °C.

`CC(=O)CN1CCC(CCN2CCN(c3ccc(F)c(C#N)c3F)CC2)CC1` [Example 690, 2,6-Difluoro-3-(4-{2-[1-(2-oxo-propyl)piperidin-4-yl]ethyl}piperazin-1-yl)benzonitrile]: the melting point came out at 108 °C.

With `COCCCC(=O)N[C@H]1CC[C@H](CCN2CCN(c3cc(Cl)cc(Cl)c3)CC2)CC1` [Example 691, N-(4-{2-[4-(3,5-Dichlorophenyl)piperazin-1-yl]ethyl}cyclohexyl)-4-methoxybutanamide], the melting point worked out at 184 °C.

Turning to `COCCCC(=O)N[C@H]1CC[C@H](CCN2CCN(c3ccc(F)c(C#N)c3F)CC2)CC1` [Example 692, N-(4-{2-[4-(3-Cyano-2,4-difluorophenyl)piperazin-1-yl]ethyl}cyclohexyl)-4-methoxybutanamide], the melting point was 211 °C.

For the compound `CC(=O)CN1CCC(CCN2CCN(c3cc(F)c(F)c(F)c3)CC2)CC1` [Example 697, 1-(4-{2-[4-(3,4,5-Trifluoro-phenyl)-piperazin-1-yl]ethyl}piperidin-1-yl)propan-2-one], the melting point came out at 86 °C.

`COCCCC(=O)N[C@H]1CC[C@H](CCN2CCN(c3ccc(Cl)cc3)CC2)CC1` [Example 698, N-(4-{2-[4-(4-Chlorophenyl)-piperazin-1-yl]ethyl}cyclohexyl)-4-methoxybutanamide]: the melting point is 204 °C.

Regarding `COCC(=O)N[C@H]1CC[C@H](CCN2CCN(c3cc(C(F)(F)F)ccc3F)CC2)CC1` [Example 701, N-(4-{2-[4-(2-Fluoro-5-trifluoromethylphenyl)piperazin-1-yl]ethyl}cyclohexyl)-2-methoxyacetamide], the melting point amounted to 139 °C.

As to `O=C(N[C@H]1CC[C@H](CCN2CCN(c3cc(C(F)(F)F)ccc3F)CC2)CC1)C1=CCCC1` [Example 705], the melting point was 199 °C.

`CS(=O)(=O)CC(=O)N[C@H]1CC[C@H](CCN2CCN(c3cc(C(F)(F)F)ccc3F)CC2)CC1` [Example 706, N-(4-{2-[4-(2-Fluoro-5-trifluoromethylphenyl)piperazin-1-yl]ethyl}cyclohexyl)-2-methanesulfonylacetamide] came in with a melting point of 192 °C.

With `N#CCC(=O)N[C@H]1CC[C@H](CCN2CCN(c3cc(F)c(F)c(F)c3F)CC2)CC1` [Example 708, 2-Cyano-N-(4-{2-[4-(2,3,4,5-tetrafluorophenyl)piperazin-1-yl]ethyl}cyclohexyl)acetamide], the melting point is 214 °C.

For `N#CCC(=O)N[C@H]1CC[C@H](CCN2CCN(c3ccc(Cl)cc3Cl)CC2)CC1` [Example 709, 2-Cyano-N-(4-{2-[4-(2,4-dichlorophenyl)piperazin-1-yl]ethyl}cyclohexyl)acetamide], the melting point came out at 189 °C.

`CC(=O)CN1CCC(CCN2CCN(c3ccc4c(c3)OCCO4)CC2)CC1` [Example 711, 1-(4-{2-[4-(2,3-Dihydrobenzo[1,4]dioxin-6-yl)piperazin-1-yl]ethyl}piperidin-1-yl)propan-2-one] returned a melting point of 126 °C.

In the case of `COCCCC(=O)N[C@H]1CC[C@H](CCN2CCN(c3cc(C)cc(C)c3)CC2)CC1` [Example 715, N-(4-{2-[4-(3,5-Dimethylphenyl)-piperazin-1-yl]ethyl}cyclohexyl)-4-methoxybutanamide], the melting point was 195 °C.

Consider `Cc1cc(C)cc(N2CCN(CC[C@H]3CC[C@H](NC(=O)CCC#N)CC3)CC2)c1` [Example 716, 3-Cyano-N-(4-{2-[4-(3,5-dimethylphenyl)piperazin-1-yl]ethyl}cyclohexyl)propanamide], for which the melting point was 175 °C.

With `N#CCC(=O)N[C@H]1CC[C@H](CCN2CCN(c3cc(Cl)c(Cl)cc3Cl)CC2)CC1` [Example 717, 2-Cyano-N-(4-{2-[4-(2,4,5-trichlorophenyl)piperazin-1-yl]ethyl}cyclohexyl)acetamide], the melting point was determined as 200 °C.

With `COCC(=O)N[C@H]1CC[C@H](CCN2CCN(c3ccc(Cl)c(Cl)c3F)CC2)CC1` [Example 719, N-(4-{2-[4-(3,4-Dichloro-2-fluorophenyl)piperazin-1-yl]ethyl}cyclohexyl)-2-methoxyacetamide], the melting point was 172 °C.

In turn, `N#CCCC(=O)N[C@H]1CC[C@H](CCN2CCN(c3ccc(Cl)c(Cl)c3F)CC2)CC1` [Example 720, 3-Cyano-N-(4-{2-[4-(3,4-dichloro-2-fluorophenyl)piperazin-1-yl]ethyl}cyclohexyl)propanamide] showed a melting point of 210 °C.

As for `Cc1cc(F)cc(N2CCN(CC[C@H]3CC[C@H](NC(=O)CC#N)CC3)CC2)c1` [Example 725, 2-Cyano-N-(4-{2-[4-(3-fluoro-5-methylphenyl)piperazin-1-yl]ethyl}cyclohexyl)acetamide], the melting point came to 180 °C.

`Cc1cc(F)cc(N2CCN(CC[C@H]3CC[C@H](NC(=O)CCCC#N)CC3)CC2)c1` [Example 726, 4-Cyano-N-(4-{2-[4-(3-fluoro-5-methylphenyl)piperazin-1-yl]ethyl}cyclohexyl)butanamide] yielded a melting point of 150 °C.

Compound `N#CCC(=O)N[C@H]1CC[C@H](CCN2CCN(c3ccc(Cl)c(Cl)c3Cl)CC2)CC1` [Example 729, 2-Cyano-N-(4-{2-[4-(2,3,4-trichlorophenyl)piperazin-1-yl]ethyl}cyclohexyl)acetamide] had a melting point of 217 °C.

In the case of `N#CCCCCC(=O)N[C@H]1CC[C@H](CCN2CCN(c3cc(C(F)(F)F)ccc3F)CC2)CC1` [Example 731], the melting point was 158 °C.

In the case of `N#CCCC(=O)N[C@H]1CC[C@H](CCN2CCN(c3ccc(F)c(Cl)c3F)CC2)CC1` [Example 732, N-(4-{2-[4-(3-Chloro-2,4-difluorophenyl)piperazin-1-yl]ethyl}cyclohexyl)-3-cyanopropanamide], the melting point is 190 °C.

On to `N#CCCC(=O)N1CCC(CCN2CCN(c3cccc(Cl)c3Cl)CC2)CC1` [Example 733, 4-(4-{2-[4-(2,3-Dichlorophenyl)piperazin-1-yl]ethyl}piperidin-1-yl)-4-oxobutanonitrile], for which the melting point is 94 °C.

In turn, `COCC(=O)N[C@H]1CC[C@H](CCN2CCN(c3cccc(C(F)(F)F)c3C)CC2)CC1` [Example 734, 2-Methoxy-N-(4-{2-[4-(2-methyl-3-trifluoromethylphenyl)piperazin-1-yl]ethyl}cyclohexyl)acetamide] yielded a melting point of 159 °C.
